From PubChem BioAssay (NCI)
“And” between values parts separate entries of the source, which are not always exact repeats. Identical values can stand only once.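 Interpolation was linear, between the two tested concentrations surrounding the appropriate level; five concentrations were tested over 48 hours in 96-well plates. GI50 = concentration required for 50% inhibition of growth. At the TGI there is no net growth.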

Legend:
Test in all cases: inhibition of tumour cell growth, NCI panel, 48 h
IGROV1 ovarian = test system: IGROV1 ovarian
SF-268 CNS = test system: SF-268 CNS
786-0 renal = test system: 786-0 renal
A498 renal = test system: A498 renal
COLO 205 colon = test system: COLO 205 colon
SNB-75 CNS = test system: SNB-75 CNS
UACC-257 melanoma = test system: UACC-257 melanoma
CAKI-1 renal = test system: CAKI-1 renal
DLD-1 colon = test system: DLD-1 colon
M19-MEL melanoma = test system: M19-MEL melanoma

| Structure (SMILES) | GI50 (IGROV1 ovarian) | TGI (IGROV1 ovarian) | GI50 (SF-268 CNS) | TGI (SF-268 CNS) [µM] | GI50 (786-0 renal) [µM] | TGI (786-0 renal) [µM] | GI50 (A498 renal) | TGI (A498 renal) | GI50 (COLO 205 colon) | TGI (COLO 205 colon) [µM] | GI50 (SNB-75 CNS) | TGI (SNB-75 CNS) | GI50 (UACC-257 melanoma) | TGI (UACC-257 melanoma) | GI50 (CAKI-1 renal) | TGI (CAKI-1 renal) | TGI (DLD-1 colon) [µM] | TGI (M19-MEL melanoma) [µM] |
| --- | --- | --- | --- | --- | --- | --- | --- | --- | --- | --- | --- | --- | --- | --- | --- | --- | --- | --- |
| CCOC(=O)C1=C(N)Oc2c(sc3c(C)cccc23)C1c1ccc(Cl)cc1 (stereo not drawn) | 0.962 µM | 15.4 µM | 6.13 µM | 22.4 | 4.05 | 16.8 | 1 µM | 7.09 µM | 3.46 µM | 14.1 | 0.643 µM | 7.79 µM | 13.1 µM | 30.4 µM | 1.2 µM | 17.3 µM |  |  |
| Fc1ccc(CNc2c3ccccc3nc3ccccc23)cc1 | 2.3 µM | 6.02 µM | 2.74 µM | 9.49 | 3.02 | 11.7 | 1.36 µM | 3.24 µM | 1.66 µM | 3.7 | 2.01 µM | 10.8 µM | 2.59 µM | 7.02 µM | 1.46 µM | 3.8 µM |  |  |
| O=C(c1ccccn1)c1nnn2ccccc12 |  | > 100 µM |  | > 100 |  | > 100 |  | > 100 µM |  | > 100 |  | > 100 µM |  | > 100 µM |  | > 100 µM |  |  |
| COc1ccc2nc3cccc([N+](=O)[O-])c3c(NCCN(CCO)CCO)c2c1 | 0.0329 µM | 0.242 µM | 0.0332 µM | 0.234 | 0.0268 | 0.156 | 0.022 µM | 0.0524 µM | 0.0118 µM | 0.031 | 0.0747 µM | 0.225 µM | 0.0248 µM | 0.0599 µM | 0.0382 µM | 0.33 µM |  |  |
| N#Cc1ccc(/C=N\N2C(=O)c3ccccc3C2=O)cc1 |  | > 100 µM |  | > 100 |  | > 100 |  | > 100 µM |  |  |  | > 100 µM |  | > 100 µM |  | > 100 µM | > 100 | > 100 |
| C/C(=N\Nc1ccc2ccccc2n1)c1ccccc1O |  | > 100 µM |  | > 100 |  | > 100 |  | > 100 µM |  | > 100 |  | 24.7 µM |  | > 100 µM |  | > 100 µM |  |  |
| CCCCCCCCCCCCOC1C(CNC(=O)C2OC3OC(C)(C)OC3C2NC(=O)CN2CCN(c3ccccn3)CC2)OC2OC(C)(C)OC21 (stereo not drawn) | 1.87 µM | 3.45 µM | 2.26 µM | 6.31 | 1.79 | 3.22 | 1.6 µM | 2.97 µM | 2.33 µM | 5.01 | 2.31 µM | 6.77 µM | 1.81 µM | 3.49 µM | 2.27 µM | 4.59 µM |  |  |
| COc1c(OC(C)=O)c(OC(C)=O)cc2c1-c1ccc(OC)c(=O)cc1C(NC(C)=O)CC2 (stereo not drawn) |  | > 100 µM |  | 54.4 |  | > 100 |  | 2.48 µM |  | 0.133 |  |  |  | > 100 µM |  | > 100 µM | > 100 | > 100 |
| CCCN(CCC)c1ccc(C=O)cc1 | > 84.4 µM | > 100 µM | 53.2 µM | > 100 | 81 | > 100 | 1.81 µM | 4.15 µM | > 77.6 µM | > 100 | 18.4 µM | > 100 µM | 35 µM | 98.2 µM | 53.2 µM | > 100 µM |  |  |
| O=C(/C=C/C=C/c1ccccc1)c1ccc(Nc2nc(Nc3ccccc3)nc(Nc3ccccc3)n2)cc1 | 0.627 µM | > 100 µM | 97 µM | > 100 | 45.8 | > 100 | 19.8 µM | > 100 µM | 2.16 µM | > 100 | 17.8 µM | > 100 µM | > 100 µM | > 100 µM | 16.3 µM | > 100 µM |  |  |
| COc1ccc(C(=O)/C(=N/Nc2ccccc2)c2ccc(OC)cc2)cc1 |  | > 100 µM |  |  |  | > 100 |  |  |  | > 100 |  | > 100 µM |  | > 100 µM |  | > 100 µM | > 100 | > 100 |
| Cn1cc(C2=C(c3c4n(c5ccccc35)CC(CN)C4)C(=O)NC2=O)c2ccccc21 (stereo not drawn) | 3.52 µM | 9.08 µM | 3.94 µM | 9.57 | 3.64 | 8.53 | 2.96 µM | 6.4 µM | 2.59 µM | 6.05 | 0.246 µM | 2.93 µM | 3.92 µM | 7.8 µM | 3.37 µM | 9.51 µM |  |  |
| O=C(O)CN(CC(=O)O)Cc1cc2c(cc1O)Oc1cc(O)c(CN(CC(=O)O)CC(=O)O)cc1C21OC(=O)c2ccccc21 |  | > 100 µM |  | > 100 |  | > 100 |  | > 100 µM |  | > 100 |  | > 100 µM |  | > 100 µM |  | > 100 µM |  |  |
| O=C1Nc2ccccc2C1(c1ccc(O)c(F)c1)c1ccc(O)c(F)c1 | 3.19 µM | 50.6 µM | 16.1 µM | 62.1 | 18.8 | 44.1 | 11.1 µM | 27.4 µM | 0.297 µM | 1.98 | 0.661 µM | 36.5 µM | 24.6 µM | 67.5 µM | 17.6 µM | 55.4 µM |  |  |
| CS(=O)(=O)N1CCN(Cc2cc3nc(-c4cccc5[nH]ncc45)nc(N4CCOCC4)c3s2)CC1 | 0.0571 µM and 0.0389 µM | 0.425 µM and 0.301 µM | 1.59 µM and 0.625 µM | > 100 | 0.281 | 2.46 | 0.0618 µM and 0.0581 µM | 0.433 µM and 0.389 µM | 0.499 µM and 0.163 µM | > 100 | 0.0918 µM and 0.0301 µM | 3.28 µM and 0.495 µM | 0.184 µM and 0.162 µM | 2.77 µM and > 2.32 µM | 0.419 µM and 0.209 µM | 3.92 µM and > 3.95 µM |  |  |
| O=S(=O)(O)c1ccc(Cl)cc1.[Cd] | 20.9 µM | 43.2 µM | 24.7 µM | 72 | 22.5 | 50.2 | > 100 µM | > 100 µM | > 100 µM | > 100 | 37.7 µM | 97.2 µM | 29.6 µM | 78.8 µM | 36 µM | > 100 µM |  |  |
| CCOC(=O)C1c2[nH]c3ccccc3c2CCN1C(=O)c1ccco1 (stereo not drawn) |  | > 10 µM |  | > 10 |  | > 10 |  | > 10 µM |  | > 10 |  | > 10 µM |  | > 10 µM |  | > 10 µM |  |  |
